US20200148617A1, “GEMCABENE, PHARMACEUTICALLY ACCEPTABLE SALTS THEREOF, COMPOSITIONS THEREOF AND METHODS OF USE THEREFOR” (GEMPHIRE THERAPEUTICS INC., priority 2017, published 2020)

Experiments:
[1] = Particle size distribution by laser light diffraction (Malvern Mastersizer 2000, Fraunhofer); type: physicochemical; conditions: cumulative volume
Description: In some embodiments, the particle size distribution and the PSD90 of a compound of the invention is determined by the laser light diffraction particle size distribution analysis. The particle size distribution is determined in accordance with the Fraunhofer light diffraction method. In this method, a coherent laser beam passes through the sample and the resulting diffraction pattern is focused on a multi-element detector. Since the diffraction pattern depends, among other parameters, on particle size, the particle size distribution can be calculated based on the measured diffraction pattern of the sample. The method is described in more detail in USP38-NF33, <429> Light Diffraction Measurement of Particle Size.
The particle size distribution was determined in accordance with the Fraunhofer light diffraction method. A coherent laser beam was passed through the sample and the resulting diffraction pattern was focused on a multi-element detector. Because the diffraction pattern depends, among other parameters, on particle size, the particle size distribution (PSD) was calculated based on the measured diffraction patter of the sample.
Stock dispersion solution was prepared by adding a few drops of the dispersing aid (e.g., 1% w/w solution of a detergent in white spirit such as Span 80, Fluka (85548-250 ml)) to an appropriate amount of substance and mixed carefully. The dispersion was then slowly diluted to a final volume of about 10 ml while vortexing. The suspension cell of the instrument (Malvern Mastersizer 2000 equipped with Hydro 2000S sample dispersion unit) was filled with dispersion medium and a background measurement was taken. […] The cumulative volume distribution was determined in accordance with the instrument's instruction manual.
The PSD10, PSD50, and PSD90 values were determined from the cumulative volume distribution of each measurement. Values smaller than 10 μm were reported to one decimal place. Results larger than 10 μm were reported as single digit values. Sample parameters used in analysis are shown below: […]

[2] = 12-week placebo-controlled study of 600 mg QD in hypercholesterolemia patients on statins: safety and tolerability; type: in vivo; conditions: add-on to highest doses of background statins
Description: High-risk patients including some, but not all those with heterozygous familial hypercholesterolemia (HeFH) or atherosclerotic cardiovascular disease (ASCVD) on appropriate diet and stable statin therapy for at least 12 weeks and LDL-C ≥100 mg/dL (2.59 mmol/L) and triglycerides <500 mg/dL (5.65 mmol/L) were randomized into a 12-week, placebo-controlled, parallel-group, double-blind study to assess the efficacy of gemcabene calcium salt hydrate Crystal Form 1 (PSD90=52 μm) 600 mg (300-mg Tablet D×2) QD on LDL-C and other lipoproteins and hsCRP (high-sensitivity C-reactive protein). Safety and tolerability were also evaluated. The patients were stratified by high- or moderate-intensity statin therapy, with or without ezetimibe, with a target of 52 patients (26 patients on 600 mg gemcabene calcium salt hydrate Crystal Form 1 as administered by 2× Tablet D and 26 patients on placebo (“placebo”)) in each stratum. […] Mean baseline LDL-C for all patients was approximately 134 mg/dL (3.48 mmol/L) with most patients in the high-intensity statin stratum on atorvastatin and most patients in the moderate-intensity stratum on either simvastatin or atorvastatin.
33 of 54 patients (61.1%) in the Tablet D group and 24 of 51 patients (47.1%) in the placebo group who reported at least one AE during the study. The most prevalent AEs were those associated with infections. […]

[3] = tested on: patients with hypercholesterolemia on stable statins; assay: 12-week placebo-controlled study of 600 mg QD in hypercholesterolemia patients on stable moderate and high-intensity statins: atherogenic and inflammatory biomarkers; type: in vivo, human; conditions: add-on to background statins
Description: High-risk patients including some, but not all those with heterozygous familial hypercholesterolemia (HeFH) or atherosclerotic cardiovascular disease (ASCVD) on appropriate diet and stable statin therapy for at least 12 weeks and LDL-C ≥100 mg/dL (2.59 mmol/L) and triglycerides <500 mg/dL (5.65 mmol/L) were randomized into a 12-week, placebo-controlled, parallel-group, double-blind study to assess the efficacy of gemcabene calcium salt hydrate Crystal Form 1 (PSD90=52 μm) 600 mg (300-mg Tablet D×2) QD on LDL-C and other lipoproteins and hsCRP (high-sensitivity C-reactive protein). Safety and tolerability were also evaluated. […]
Within the study population, an analysis was performed in a subpopulation of patients having mixed dyslipidemia (LDL-C ≥100 mg/dL and triglycerides ≥200 and <500 mg/dL). Eighteen patients (10 (Tablet D×2) patients and 8 placebo patients) having a baseline mean LDL-C level of 142 mg/dL, baseline mean triglyceride level of 247 mg/dL and BMI of 34 kg/m^2 were analyzed (FIG. 48). Although not measured in the subpopulation of this Example, some cardiometabolic patients could have elevated sulphatase-2 (Sulf-2) levels, which are believed to cause reduced Syndecan-1 (also known as “remnant receptor”)-mediated clearance of atherogenic remnant lipoproteins. […]

CC(C)(CCCCOCCCCC(C)(C)C(=O)[O-])C(=O)[O-].O.[Ca+2] [6-(5-Carboxy-5-methyl-hexyloxy)-2,2-dimethylhexanoic acid calcium (gemcabene calcium salt) hydrate Crystal Form 1]
D10 (PSD10) [1]: D10 = 8.9 μm | D50 (PSD50) [1]: D50 = 24.3 μm | D90 (PSD90) [1]: D90 = 44.1 μm | muscle or liver related toxicities [2]: No evidence | serum hsCRP [3]: decreased
